Holding throughout (assay type): ADME
Data set [1] in a line: The drug is tested on Lactobacillus ruminis strain: ATCC25644 for biotransformation under anaerobic condition. The drug concentrations were measured over 6 timepoints collected between 0 and 12 hours of incubation by liquid-chromatography-coupled mass spectrometry (LC–MS). As to conditions: ligilactobacillus ruminis, 5 µM. Also noted: dose 5 uM, timepoint 0, 1.5, 3, 6, 9, 12 hours.

The nature of data set [2]: The drug is tested on the gut metagenome community of A-03 with ENA study accession number: PRJEB31790 for biotransformation under anaerobic condition. The drug concentrations were measured over 7 timepoints collected between 0 and 12 hours of incubation by liquid-chromatography-coupled mass spectrometry (LC–MS). Further details: dose 5 uM, timepoint 0, 0.75, 1.5, 3, 6, 9, 12 hours. As to conditions: 5 µM.

Data set [3] can be described thus: The drug is tested on Streptococcus mitis strain: DSM12643 for biotransformation under anaerobic condition. The drug concentrations were measured over 6 timepoints collected between 0 and 12 hours of incubation by liquid-chromatography-coupled mass spectrometry (LC–MS). Further details: dose 5 uM, timepoint 0, 1.5, 3, 6, 9, 12 hours. As to conditions: 5 µM.
The nature of data set [4]: The drug is tested on the gut metagenome community of P-01 with ENA study accession number: PRJEB31790 for biotransformation under microaerobic condition. The drug concentrations were measured over 7 timepoints collected between 0 and 12 hours of incubation by liquid-chromatography-coupled mass spectrometry (LC–MS). As to conditions: 5 µM. Also noted: dose 5 uM, timepoint 0, 0.75, 1.5, 3, 6, 9, 12 hours.

Data set [5] can be described thus: The drug is tested on the gut metagenome community of T-05 with ENA study accession number: PRJEB31790 for biotransformation under microaerobic condition. The drug concentrations were measured over 7 timepoints collected between 0 and 12 hours of incubation by liquid-chromatography-coupled mass spectrometry (LC–MS). Further details: dose 5 uM, timepoint 0, 0.75, 1.5, 3, 6, 9, 12 hours. As to conditions: 5 µM.

Data set [6] in a line: The drug is tested on Eubacterium hallii strain: DSM3353 for biotransformation under anaerobic condition. The drug concentrations were measured over 6 timepoints collected between 0 and 12 hours of incubation by liquid-chromatography-coupled mass spectrometry (LC–MS). Further details: dose 5 uM, timepoint 0, 1.5, 3, 6, 9, 12 hours. As to conditions: anaerobutyricum hallii, 5 µM.

Data set [7] can be described thus: The drug is tested on the gut metagenome community of A-03 with ENA study accession number: PRJEB31790 for biotransformation under microaerobic condition. The drug concentrations were measured over 7 timepoints collected between 0 and 12 hours of incubation by liquid-chromatography-coupled mass spectrometry (LC–MS). Also noted: dose 5 uM, timepoint 0, 0.75, 1.5, 3, 6, 9, 12 hours. As to conditions: 5 µM.

A short description of data set [8]: The drug is tested on Bacteroides uniformis strain: DSM6597 for biotransformation under anaerobic condition. The drug concentrations were measured over 6 timepoints collected between 0 and 12 hours of incubation by liquid-chromatography-coupled mass spectrometry (LC–MS). Further details: dose 5 uM, timepoint 0, 1.5, 3, 6, 9, 12 hours. As to conditions: 5 µM.
Data set [9] can be described thus: The drug is tested on Bacteroides ovatus strain: ATCC 8483 for biotransformation under anaerobic condition. The drug concentrations were measured over 6 timepoints collected between 0 and 12 hours of incubation by liquid-chromatography-coupled mass spectrometry (LC–MS). Further details: dose 5 uM, timepoint 0, 1.5, 3, 6, 9, 12 hours. As to conditions: 5 µM.
Data set [10] in a line: The drug is tested on the gut metagenome community of A-04 with ENA study accession number: PRJEB31790 for biotransformation under microaerobic condition. The drug concentrations were measured over 7 timepoints collected between 0 and 12 hours of incubation by liquid-chromatography-coupled mass spectrometry (LC–MS). As to conditions: 5 µM. Further details: dose 5 uM, timepoint 0, 0.75, 1.5, 3, 6, 9, 12 hours.

Data set [11] in a line: The drug is tested on Bacteroides xylanisolvens strain: HM 722 for biotransformation under anaerobic condition. The drug concentrations were measured over 6 timepoints collected between 0 and 12 hours of incubation by liquid-chromatography-coupled mass spectrometry (LC–MS). Further details: dose 5 uM, timepoint 0, 1.5, 3, 6, 9, 12 hours. As to conditions: 5 µM.
Data set [12] is described as follows: The drug is tested on the gut metagenome community of A-01 with ENA study accession number: PRJEB31790 for biotransformation under anaerobic condition. The drug concentrations were measured over 7 timepoints collected between 0 and 12 hours of incubation by liquid-chromatography-coupled mass spectrometry (LC–MS). Further details: dose 5 uM, timepoint 0, 0.75, 1.5, 3, 6, 9, 12 hours. As to conditions: 5 µM.

Data set [13] in a line: The drug is tested on Akkermansia muciniphila strain: DSM22959 for biotransformation under anaerobic condition. The drug concentrations were measured over 6 timepoints collected between 0 and 12 hours of incubation by liquid-chromatography-coupled mass spectrometry (LC–MS). Further details: dose 5 uM, timepoint 0, 1.5, 3, 6, 9, 12 hours. As to conditions: 5 µM.
Data set [14] is described as follows: The drug is tested on the gut metagenome community of A-08 with ENA study accession number: PRJEB31790 for biotransformation under microaerobic condition. The drug concentrations were measured over 7 timepoints collected between 0 and 12 hours of incubation by liquid-chromatography-coupled mass spectrometry (LC–MS). Also noted: dose 5 uM, timepoint 0, 0.75, 1.5, 3, 6, 9, 12 hours. As to conditions: 5 µM.

Data set [15] in a line: The drug is tested on the gut metagenome community of T-04 with ENA study accession number: PRJEB31790 for biotransformation under microaerobic condition. The drug concentrations were measured over 7 timepoints collected between 0 and 12 hours of incubation by liquid-chromatography-coupled mass spectrometry (LC–MS). As to conditions: 5 µM. Further details: dose 5 uM, timepoint 0, 0.75, 1.5, 3, 6, 9, 12 hours.

The nature of data set [16]: The drug is tested on Faecalibacterium prausnitzii strain: DSM17677 for biotransformation under anaerobic condition. The drug concentrations were measured over 6 timepoints collected between 0 and 12 hours of incubation by liquid-chromatography-coupled mass spectrometry (LC–MS). Further details: dose 5 uM, timepoint 0, 1.5, 3, 6, 9, 12 hours. As to conditions: faecalibacterium duncaniae, 5 µM.

The nature of data set [17]: The drug is tested on the gut metagenome community of A-10 with ENA study accession number: PRJEB31790 for biotransformation under anaerobic condition. The drug concentrations were measured over 7 timepoints collected between 0 and 12 hours of incubation by liquid-chromatography-coupled mass spectrometry (LC–MS). Also noted: dose 5 uM, timepoint 0, 0.75, 1.5, 3, 6, 9, 12 hours. As to conditions: 5 µM.

Data set [18] can be described thus: The drug is tested on Actinomyces naeslundi strain: DSM43013 for biotransformation under anaerobic condition. The drug concentrations were measured over 6 timepoints collected between 0 and 12 hours of incubation by liquid-chromatography-coupled mass spectrometry (LC–MS). Also noted: dose 5 uM, timepoint 0, 1.5, 3, 6, 9, 12 hours. As to conditions: actinomyces naeslundii, 5 µM.

Data set [19] is described as follows: The drug is tested on the gut metagenome community of A-09 with ENA study accession number: PRJEB31790 for biotransformation under anaerobic condition. The drug concentrations were measured over 7 timepoints collected between 0 and 12 hours of incubation by liquid-chromatography-coupled mass spectrometry (LC–MS). Further details: dose 5 uM, timepoint 0, 0.75, 1.5, 3, 6, 9, 12 hours. As to conditions: 5 µM.

Data set [20] can be described thus: The drug is tested on Lactobacillus ruminis strain: ATCC25644 for biotransformation under microaerobic condition. The drug concentrations were measured over 6 timepoints collected between 0 and 12 hours of incubation by liquid-chromatography-coupled mass spectrometry (LC–MS). Also noted: dose 5 uM, timepoint 0, 1.5, 3, 6, 9, 12 hours. As to conditions: ligilactobacillus ruminis, 5 µM.

A short description of data set [21]: The drug is tested on the gut metagenome community of T-01 with ENA study accession number: PRJEB31790 for biotransformation under anaerobic condition. The drug concentrations were measured over 7 timepoints collected between 0 and 12 hours of incubation by liquid-chromatography-coupled mass spectrometry (LC–MS). As to conditions: 5 µM. Further details: dose 5 uM, timepoint 0, 0.75, 1.5, 3, 6, 9, 12 hours.

A short description of data set [22]: The drug is tested on Roseburia intestinalis strain: DSM14610 for biotransformation under anaerobic condition. The drug concentrations were measured over 6 timepoints collected between 0 and 12 hours of incubation by liquid-chromatography-coupled mass spectrometry (LC–MS). Further details: dose 5 uM, timepoint 0, 1.5, 3, 6, 9, 12 hours. As to conditions: 5 µM.

A short description of data set [23]: The drug is tested on Bacteroides vulgatus strain: DSM1447 for biotransformation under anaerobic condition. The drug concentrations were measured over 6 timepoints collected between 0 and 12 hours of incubation by liquid-chromatography-coupled mass spectrometry (LC–MS). Further details: dose 5 uM, timepoint 0, 1.5, 3, 6, 9, 12 hours. As to conditions: phocaeicola vulgatus, 5 µM.

Data set [24] can be described thus: The drug is tested on Alloscardovia omnicolens strain: DSM21503 for biotransformation under anaerobic condition. The drug concentrations were measured over 6 timepoints collected between 0 and 12 hours of incubation by liquid-chromatography-coupled mass spectrometry (LC–MS). Also noted: dose 5 uM, timepoint 0, 1.5, 3, 6, 9, 12 hours. As to conditions: 5 µM.

Each structure is given as a SMILES string.

For `NS(=O)(=O)c1cc(C(=O)O)c(NCc2ccco2)cc1Cl` [FUROSEMIDE], the “Bacterial Biotransformation” value in data set [1], in data set [2], in data set [3], in [4], in data set [5] and in [6] was “Compound NOT metabolized” each time. For the same molecule, the “Bacterial Biotransformation” value in data set [7], in data set [8], in data set [9], in data set [10], in [11] and in data set [12] was “Compound NOT metabolized” each time. The “Bacterial Biotransformation” value in data set [13], in [14], in data set [15], in [16], in data set [17] and in [18] was “Compound NOT metabolized” in each case. Further, the “Bacterial Biotransformation” value in data set [19], in [20], in data set [21], in data set [22], in data set [23] and in data set [24] was “Compound NOT metabolized” throughout.

For `C[C@]12CCC(=O)C=C1CC[C@@H]1[C@@H]2[C@@H](O)C[C@@]2(C)[C@H]1CC[C@]2(O)C(=O)CO` [HYDROCORTISONE], the “Bacterial Biotransformation” value in data set [1] is reported as “Compound NOT metabolized”; in data set [2] it was “Compound metabolized”; in [3], “Compound NOT metabolized”; in data set [4], “Compound metabolized”; in [5] it was “Compound metabolized”; in data set [6], “Compound NOT metabolized”. The “Bacterial Biotransformation” value in data set [7] is “Compound metabolized”; in data set [8], “Compound NOT metabolized”; in data set [9], “Compound NOT metabolized”; in [10], “Compound metabolized”; in data set [11] it was “Compound NOT metabolized”; in data set [12], “Compound metabolized”. The “Bacterial Biotransformation” value was “Compound NOT metabolized” in data set [13]; “Compound metabolized” in data set [14]; “Compound NOT metabolized” in data set [15]; “Compound NOT metabolized” in data set [16]; “Compound metabolized” in data set [17]; “Compound NOT metabolized” in [18]. Besides, the “Bacterial Biotransformation” value in data set [19] is “Compound metabolized”; in data set [20], “Compound NOT metabolized”; in data set [21], “Compound metabolized”; in data set [22], “Compound NOT metabolized”; in data set [23], “Compound NOT metabolized”; in data set [24] it was “Compound NOT metabolized”.

For the molecule `CN(Cc1cnc2nc(N)nc(N)c2n1)c1ccc(C(=O)N[C@@H](CCC(=O)O)C(=O)O)cc1` [METHOTREXATE], the “Bacterial Biotransformation” value is “Compound NOT metabolized” in data set [1]; “Compound metabolized” in data set [2]; “Compound NOT metabolized” in data set [3]; “Compound NOT metabolized” in data set [4]; “Compound metabolized” in data set [5]; “Compound metabolized” in data set [6]. The “Bacterial Biotransformation” value is recorded as “Compound NOT metabolized” in data set [7]; “Compound NOT metabolized” in [8]; “Compound NOT metabolized” in data set [9]; “Compound metabolized” in data set [10]; “Compound NOT metabolized” in data set [11]; “Compound NOT metabolized” in data set [12]. Besides, the “Bacterial Biotransformation” value is given as “Compound NOT metabolized” in data set [13]; “Compound metabolized” in data set [14]; “Compound NOT metabolized” in data set [15]; “Compound NOT metabolized” in data set [16]; “Compound metabolized” in data set [17]; “Compound NOT metabolized” in data set [18]. In addition, the “Bacterial Biotransformation” value was “Compound metabolized” in data set [19]; “Compound NOT metabolized” in data set [20]; “Compound NOT metabolized” in data set [21]; “Compound metabolized” in [22]; “Compound NOT metabolized” in [23]; “Compound NOT metabolized” in data set [24].

Values taken from ChEMBL document CHEMBL5724806, “Unraveling interindividual differences and functional consequences of gut microbial metabolism of immunosuppressants” (2024).
